Assay: Inhibition of recombinant HCV NS5B Cdelta21 polymerase assessed as [alpha-32P]UMP incorporation into RNA after 1 hr by liquid scintillation counting
Set-up: species or system Hepacivirus hominis

| SMILES | IC50 [µM] |
| --- | --- |
| O=C(O)/C(O)=C/C(=O)c1ccc[nH]1 | 21.7 |
| O=C(O)/C(O)=C/C(=O)c1cc2ccccc2s1 | 37.7 |
| O=C(O)/C(O)=C/C(=O)c1cccs1 | 17.3 |
| O=C(O)/C(O)=C/C(=O)c1cccc(F)c1 | 49.9 |
| O=C(O)/C(O)=C/C(=O)c1ccc(-c2ccccc2)cc1 | 20.9 |
| O=C(O)/C(O)=C/C(=O)c1ccc(Br)s1 | 31.4 |
| O=C(O)/C(O)=C/C(=O)c1ccco1 | 21.8 |
| O=C(O)/C(O)=C/C(=O)c1nccs1 | 30.4 |
| Cc1csc(C(=O)/C=C(\O)C(=O)O)c1 | 32.7 |
| Cc1ccc(C(=O)/C=C(\O)C(=O)O)s1 | 55.5 |
| O=C(O)/C(O)=C/C(=O)c1ccccc1[N+](=O)[O-] | 11.3 |
| O=C(O)/C(O)=C/C(=O)c1n[nH]c2ccccc12 | 24.7 |
| O=C(O)/C(O)=C/C(=O)c1cccc(-c2nnn[nH]2)c1 | 5.2 |
| O=C(O)/C(O)=C/C(=O)c1ccc(Cl)cc1Cl | 49.7 |
| O=C(O)/C(O)=C/C(=O)c1ccc(Cl)s1 | 25.5 |
| O=C(O)/C(O)=C/C(=O)c1ccc(F)cc1F | 2.4 |
| Cc1ccsc1C(=O)/C=C(\O)C(=O)O | 7.5 |
| Cc1ccccc1C(=O)/C=C(\O)C(=O)O | 6.9 |
| N#Cc1cccc(C(=O)/C=C(\O)C(=O)O)c1 | 39.7 |
| O=C(O)/C(O)=C/C(=O)c1c(F)cccc1F | 17 |
| CCOC(=O)/C(O)=C/C(=O)c1ccccc1F | 12.4 |
| O=C(O)/C(O)=C/C(=O)c1cc2cc(Br)ccc2o1 | 8.2 |
| O=C(O)/C(O)=C/C(=O)c1ccccc1F | 14.9 |
| O=C(O)/C(O)=C/C(=O)c1cc2ccccc2o1 | 29.6 |
| O=C(O)/C(O)=C/C(=O)c1ccc(I)s1 | 63.9 |
| CCOC(=O)/C(O)=C/C(=O)c1n[nH]c2ccccc12 | 38.4 |

From ChEMBL document CHEMBL1828504, “Synthesis and SAR optimization of diketo acid pharmacophore for HCV NS5B polymerase inhibition” (Eur J Med Chem, 2011)
